Data: patent publication US7741350B1 (Cara Therapeutics, Inc., priority 2009, dated 2010)
Where two headings read alike, the source gives them in different places.

Experiments:
[1] = target: human CB2 receptor (hCB2) (Homo sapiens, UniProt P34972); assay: cAMP assay at human CB2 receptor; type: cell-based; conditions: hCB2R, maximum measurable range 30 μM
Method: (§1) TR-FRET was measured using a 330-380 nm excitation filter, 615 nm and 665 nm emission filters, dichroic minor 380 nm and Z=10 mm. cAMP concentrations in each well were back-calculated from a cAMP standard curve run concurrently during each assay. Each plate contained 16 wells of forskolin stimulated cells and 16 wells of forskolin plus 1 μM CP55,940-treated cells. Concentrations of cAMP were expressed as a percent of the difference of these two groups of wells.

[2] = target: human CB1 receptor (hCB1) (Homo sapiens, UniProt P21554); assay: cAMP assay at human CB1 receptor; type: cell-based; conditions: hCB1R; maximum measurable range 30 μM; read-out: EC50 (Potency at Human CB1 determined by cAMP Assay)
Method: The ability of each of the compounds to act as agonists or inverse agonists at human CB2 and CB1 receptors (hCB2, hCB1, respectively) and at the rat CB2 receptor (rCB2) was determined by measuring changes in intracellular cyclic AMP (cAMP) levels as described in U.S. Pat. No. 7,517,874.
as §1, with “wells. Concentration-response data including EC50 (the concentration of compound producing 50% of the maximal response) and intrinsic activity (the percent maximal activation compared to full activation by CP55, 940) were determined using a four-parameter non-linear regression algorithm (CambridgeSoft Bioassay).” for “wells.”

[3] = read-out: EC50 (Potency at Human CB2 determined by cAMP Assay)
[4] = EC50 (Potency at Human CB2 determined by cAMP Assay)

Sequence of human CB1 receptor (hCB1) (P21554 whole entry): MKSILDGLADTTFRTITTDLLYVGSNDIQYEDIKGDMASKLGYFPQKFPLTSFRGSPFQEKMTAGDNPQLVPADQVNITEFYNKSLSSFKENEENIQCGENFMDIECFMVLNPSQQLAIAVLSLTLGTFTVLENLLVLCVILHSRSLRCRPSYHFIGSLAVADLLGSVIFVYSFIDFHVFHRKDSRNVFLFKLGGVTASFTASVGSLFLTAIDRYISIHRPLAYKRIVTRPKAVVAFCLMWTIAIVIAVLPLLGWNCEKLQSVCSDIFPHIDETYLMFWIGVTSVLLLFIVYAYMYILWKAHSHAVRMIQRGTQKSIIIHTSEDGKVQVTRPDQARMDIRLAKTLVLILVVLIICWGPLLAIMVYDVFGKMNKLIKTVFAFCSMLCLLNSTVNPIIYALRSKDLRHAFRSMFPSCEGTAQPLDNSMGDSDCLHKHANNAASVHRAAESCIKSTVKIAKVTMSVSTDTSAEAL
Sequence of human CB2 receptor (hCB2) (P34972 whole entry): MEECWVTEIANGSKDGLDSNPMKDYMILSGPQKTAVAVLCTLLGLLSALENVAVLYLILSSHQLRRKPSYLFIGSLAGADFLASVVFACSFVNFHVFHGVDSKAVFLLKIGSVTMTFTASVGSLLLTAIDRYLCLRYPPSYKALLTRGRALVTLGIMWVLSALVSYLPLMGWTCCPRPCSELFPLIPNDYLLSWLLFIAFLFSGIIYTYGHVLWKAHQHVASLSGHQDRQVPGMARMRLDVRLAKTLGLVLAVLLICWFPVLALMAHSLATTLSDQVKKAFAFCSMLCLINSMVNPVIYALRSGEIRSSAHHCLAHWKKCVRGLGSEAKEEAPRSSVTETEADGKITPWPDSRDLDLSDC

Row | SMILES | EC50 [1, 3] | EC50 [2] | EC50 [1, 4]
1 | CNC(=O)[C@@H](NC(=O)n1nc(-c2cc(F)ccc2F)c2c1CCN(C)C2)C(C)(C)C [Compound 64, (S)-3-(2,5-difluorophenyl)-N-(3,3-dimethyl-1-(methylamino)-1-oxobutan-2-yl)-5-methyl-4,5,6,7-tetrahydro-1H-pyrazolo[4,3-c]pyridine-1-carboxamide] | > 1000 nM | < 1000 nM | 
2 | CCN1CCc2c(c(-c3cc(F)ccc3F)nn2C(=O)N[C@H](C(=O)NC)C(C)(C)C)C1 [Compound 65, (S)-3-(2,5-difluorophenyl)-N-(3,3-dimethyl-1-(methylamino)-1-oxobutan-2-yl)-5-ethyl-4,5,6,7-tetrahydro-1H-pyrazolo[4,3-c]pyridine-1-carboxamide] |  | < 1000 nM | < 1000 nM
3 | CN1CCc2c(c(-c3cc(F)ccc3F)nn2C(=O)N[C@H](CO)C(C)(C)C)C1 [Compound 66, (S)-3-(2,5-difluorophenyl)-N-(1-hydroxy-3,3-dimethylbutan-2-yl)-5-methyl-4,5,6,7-tetrahydro-1H-pyrazolo[4,3-c]pyridine-1-carboxamide] | > 1000 nM | < 1000 nM | 
4 | CNC(=O)[C@@H](NC(=O)n1nc(-c2ccc(F)c(F)c2)c2c1CCC(NC)C2)C(C)(C)C (stereo partly drawn) [Compound 68, 3-(3,4-difluorophenyl)-N—((S)-3,3-dimethyl-1-(methylamino)-1-oxobutan-2-yl)-5-(methylamino)-4,5,6,7-tetrahydro-1H-indazole-1-carboxamide] |  | < 1000 nM | < 1000 nM
5 | CNC(=O)[C@@H](NC(=O)n1nc(-c2ccc(F)c(F)c2)c2c1CCCCN2C)C(C)(C)C [Compound 69, (S)-3-(3,4-difluorophenyl)-N-(3,3-dimethyl-1-(methylamino)-1-oxobutan-2-yl)-4-methyl-5,6,7,8-tetrahydropyrazolo[4,3-b]azepine-1(4H)-carboxamide] |  | < 1000 nM | < 1000 nM
6 | CN1CCc2c(c(-c3cc(F)c(F)cc3F)nn2C(=O)N[C@@H](CO)c2ccccc2)C1 [Compound 70, (R)—N-(2-hydroxy-1-phenylethyl)-5-methyl-3-(2,4,5-trifluorophenyl)-4,5,6,7-tetrahydro-1H-pyrazolo[4,3-c]pyridine-1-carboxamide] | > 1000 nM | < 1000 nM | 
7 | CN1CCc2c(c(-c3cc(F)c(F)cc3F)nn2C(=O)N[C@H](C(=O)O)C(C)(C)C)C1 [Compound 71, (S)-3,3-dimethyl-2-(5-methyl-3-(2,4,5-trifluorophenyl)-4,5,6,7-tetrahydro-1H-pyrazolo[4,3-c]pyridine-1-carboxamido)butanoic acid] | > 30000 nM | > 30000 nM | 
8 | CC(C)C[C@H](NC(=O)[C@@H](NC(=O)n1nc(-c2cc(F)c(F)cc2F)c2c1CCN(C)C2)C(C)(C)C)C(N)=O [Compound 72, N—((S)-1-((S)-1-amino-4-methyl-1-oxopentan-2-ylamino)-3,3-dimethyl-1-oxobutan-2-yl)-5-methyl-3-(2,4,5-trifluorophenyl)-4,5,6,7-tetrahydro-1H-pyrazolo[4,3-c]pyridine-1-carboxamide] | > 1000 nM | > 1000 nM | 
9 | CN1CCc2c(c(-c3cc(F)c(F)cc3F)nn2C(=O)N[C@H](C(=O)NCCC(N)=O)C(C)(C)C)C1 [Compound 73, (S)—N-(1-(3-amino-3-oxopropylamino)-3,3-dimethyl-1-oxobutan-2-yl)-5-methyl-3-(2,4,5-trifluorophenyl)-4,5,6,7-tetrahydro-1H-pyrazolo[4,3-c]pyridine-1-carboxamide] | > 1000 nM | < 1000 nM | 
10 | CN1CCc2c(c(-c3cc(F)c(F)cc3F)nn2C(=O)N[C@H](C(=O)N2CCC[C@H]2C(N)=O)C(C)(C)C)C1 [Compound 74, N—((S)-1-((S)-2-carbamoylpyrrolidin-1-yl)-3,3-dimethyl-1-oxobutan-2-yl)-5-methyl-3-(2,4,5-trifluorophenyl)-4,5,6,7-tetrahydro-1H-pyrazolo[4,3-c]pyridine-1-carboxamide] | > 1000 nM | < 1000 nM | 
